# Where a name gives a salt, the structure may show the parent alone. Read-outs that look alike come from different tables or passages of the source.
# Legend:
# [1] = Polarizing microscope (PLM) image, particle size; type: physicochemical; conditions: room temperature
# Source text: The polarizing microscope data are acquired by an Axio Lab. A1 upright microscope at room temperature.
# [2] = Hygroscopicity by dynamic vapor sorption (DVS); type: physicochemical; conditions: for After DVS test Whether the crystal form is changed: 0% RH to 95% RH to 0% RH; for After DVS test Whether the crystal form is changed / Hygroscopicity / Vapor sorption (25° C./80% RH): 25° C.; for Hygroscopicity / Vapor sorption (25° C./80% RH): DVS; for DVS curve vapor sorption: at 0% RH to 80% RH; for Risk evaluation: hygroscopicity evaluation
# Procedure: Dynamic vapor sorption (DVS) curves are acquired on a DVS Intrinsic in SMS (Surface Measurement System). The relative humidity at 25° C. is corrected with the deliquescence points of LiCl, Mg(NO3)2 and KCl.
# Hygroscopicity of the crystal form A of hydrochloride, the crystal form A of fumarate, the crystal form A of benzenesulfonate and the free base crystal form A prepared repeatedly was evaluated using a dynamic vapor sorption (DVS) instrument. Starting at 0% relative humidity (0% RH), the test acquired the percentage change of mass of the sample when humidity changed (0% RH to 95% RH to 0% RH) at a constant temperature of 25° C.
# Solid stability, 1 week = type: physicochemical; conditions: for Purity (area %): HPLC; for Crystal form change: XRPD
# Procedure: The crystal form A of hydrochloride, the crystal form A of fumarate, the crystal form A of benzenesulfonate and the free base crystal form A prepared repeatedly were placed at 25° C./60% RH and 40° C./75% RH for 1 week, and then the physical and chemical stability of the samples were tested by XRPD and HPLC. […] No significant purity decrease or crystal form transformation occurred in any of the other samples after being placed under 2 conditions for 1 week.
# [3] = Dynamic solubility in water and three biological vehicles; type: physicochemical; conditions: for pH: filtrate; for Crystal form change: XRPD of solid
# Procedure: The dynamic solubility of the crystal form A of hydrochloride, the crystal form A of fumarate, the crystal form A of benzenesulfonate and the free base crystal form A prepared repeatedly was evaluated in water and three biological vehicles. […] After centrifugation of the samples at each time point (0.45 μm PTFE filter head), the filtrate was determined for HPLC concentration and pH, and the centrifuged solid samples were tested for XRPD.
# [4] = In vivo pharmacokinetic assay in mice; conditions: male, ICR, mouse, in vivo
# Procedure: (§1) In vivo pharmacokinetic assay in rats was performed, wherein the used rats were 6 male SD rats weighing 180-240 g and fasted overnight. […] Blood samples were centrifuged at 8000 rpm for 6 min at 4° C., and plasma was collected and stored at −20° C. The plasma at each time point was taken and added with 3-5 times of acetonitrile solution containing the internal standard for mixing, and the mixed solution was subjected to vortex mixing for 1 min, and centrifuging at 4° C. for 10 min at 13000 rpm. The supernatant was taken and added with 3 times of water for mixing. A proper amount of the mixed solution was taken for LC-MS/MS analysis. The major pharmacokinetic parameters were analyzed using WinNonlin 7.0 software and a non-compartmental model.
# In vivo pharmacokinetic assay in mice was performed, wherein the used mice were 18 male ICR mice weighing 20-25 g and fasted overnight. […] The rest of the procedure was performed in the same manner as in the pharmacokinetic assay in rats.
# [5] = Thermodynamic solubility assay; type: physicochemical; conditions: thermodynamic from solid
# Procedure: The compounds were weighed out accurately, added to the prepared phosphate buffered saline at pH 7.4, FeSSIF solution at pH 5.8 and FaSSGF solution at pH 1.6 to prepare a solution at a concentration of 4 mg/mL, and the prepared solution was shaken at 1000 rpm for 1 h, and then incubated overnight at room temperature. The incubated solution was centrifuged at 12000 rpm for 10 min to remove undissolved particles, and the supernatant was transferred to a new centrifuge tube. After the supernatant was diluted properly, the supernatant was added with an acetonitrile solution containing an internal standard, and quantified by adopting a standard curve prepared by the same matrix.
# [6] = Stability assay of human liver microsome; type: in vitro ADME; conditions: human liver microsomes, NADPH, 37° C.
# Procedure: The stability of human liver microsome was detected by in vitro co-incubation of compounds with human liver microsomes. Test compounds were first prepared as 10 mM stock solutions in DMSO solvent, followed by dilution of the compounds to 0.5 mM using acetonitrile. […] The deep-well plate was taken, […] was added to each well, then 15 μL of pre-warmed 6 mM NADPH solution was added to the plate to start the reaction, and the plate was incubated at 37° C. […] The supernatant was taken after centrifugation, and added with purified water at a ratio of 1:1 for LC-MS/MS detection to obtain the ratio of peak area of compound to peak area of internal standard at each time point. […] T1/2 was calculated using Excel.
# [7] = Pharmacokinetic assay (crystal form) in mice; type: in vivo; conditions: male, ICR, mouse, plasma, oral intragastric administration 10 mg/kg
# Procedure: as §1, with “in mice” for “in rats”, “used mice” for “used rats”, “were 9” for “were 6”, “male ICR mice” for “male SD rats”, “weighing 20-25” for “weighing 180-240”, “overnight. 9 mice were taken and orally intragastrically administered with 10 mg/kg of the compound.” for “overnight.”
# [8] = In vivo pharmacokinetic assay in rats; conditions: male, SD, rat, in vivo
# Procedure: as §1
# [9] = listed as crystal form A of hydrochloride
# [10] = intravenous injection 1 mg/kg, read-out: Vz
# [11] = oral intragastric administration 10 mg/kg
structure (smiles),measurement,setting,value
C[C@H](Cc1cnn[nH]1)OCC(=O)N1Cc2cnc(NC3Cc4ccccc4C3)nc2C1 [Crystal form A of hydrochloride],particle size,[1],less than 50 μm
same,After DVS test Whether the crystal form is changed,[2],Yes*
same,After DVS test Whether the crystal form is changed,[2]; [9],changed crystal form
same,Hygroscopicity,[2],Moderately
same,Vapor sorption (25° C./80% RH),[2],3.85%
same,Hygroscopicity,[2]; [9],had hygroscopicity
same,DVS curve vapor sorption,[2],less than 3.85%
same,Risk evaluation,[2],Significantly increased
same,Purity/initial purity (%),"Solid stability, 1 week; 25° C./60% RH",99.5%
same,Purity (area %),"Solid stability, 1 week; 25° C./60% RH",96.68 area %
same,Crystal form change,"Solid stability, 1 week; 25° C./60% RH",No
same,Purity/initial purity (%),"Solid stability, 1 week; 40° C./75% RH",79.9%
same,XRPD crystallinity,"Solid stability, 1 week; 40° C./75% RH",decreased
same,Purity (area %),"Solid stability, 1 week; 40° C./75% RH",77.67 area %
same,Crystal form change,"Solid stability, 1 week; 40° C./75% RH",No*
same,pH,"[3]; FaSSIF, 1 h",5.7
same,pH,"[3]; FaSSIF, 4 h",5.5
same,pH,"[3]; FaSSIF, 24 h",5.2
same,pH,"[3]; FeSSIF, 1 h",4.9
same,pH,"[3]; FeSSIF, 4 h",4.9
same,pH,"[3]; FeSSIF, 24 h",4.9
same,pH,"[3]; H2O, 1 h",2.3
same,pH,"[3]; H2O, 4 h",2.2
same,pH,"[3]; H2O, 24 h",2.3
same,pH,"[3]; SGF, 1 h",1.8
same,pH,"[3]; SGF, 4 h",1.8
same,pH,"[3]; SGF, 24 h",1.9
same,solubility in each system compared with that of the free base crystal form A,"[3]; water, SGF, FaSSIF, FeSSIF",significantly improved
"O=C(COCCc1cnn[nH]1)N1Cc2cnc(NC3Cc4ccccc4C3)nc2C1 [Control compound, reference compound]",AUC(0-t),[4]; intravenous injection 1 mg/kg,290 ng·h/mL
same,clearance,[4]; intravenous injection 1 mg/kg,57.5 mL/min/kg
same,half-life,[4]; intravenous injection 1 mg/kg,20.4 min
same,Vd,[4]; [10],1.67 L/kg
same,AUC(0-t),[4]; [11],2900 ng·h/mL
same,Cmax,[4]; [11],2040 ng/mL
same,Tmax,[4]; [11],15 min
same,half-life,[4]; [11],49.8 min
same,solubility,"[5]; aqueous buffer, PBS, pH 7.4, room temperature overnight, read-out: Solubility PBS (pH 7.4)",6.3 mg/mL
same,solubility,"[5]; fassgf or other biorelevant, FaSSGF, pH 1.6, room temperature overnight, read-out: Solubility FaSSGF (pH 1.6)",66.5 mg/mL
same,solubility,"[5]; FeSSIF, pH 5.8, room temperature overnight, read-out: Solubility FeSSIF (pH 5.8)",18.3 mg/mL
same,Remaining percentage of compound after 30 min of incubation (%),[6],41.2%
same,half-life at 1.5 μM,[6],24.1 min
same,AUC(0-t),[7],2900 ng·h/mL
same,Cmax,[7],2040 ng/mL
same,Tmax,[7],15 min
same,half-life,[7],49.8 min
same,AUC(0-t),[8]; intravenous injection 1 mg/kg,580 ng·h/mL
same,clearance,[8]; intravenous injection 1 mg/kg,29.3 mL/min/kg
same,half-life,[8]; intravenous injection 1 mg/kg,27 min
same,Vd,[8]; [10],1.12 L/kg
same,AUC(0-t),[8]; [11],4870 ng·h/mL
same,Cmax,[8]; [11],2590 ng/mL
same,Tmax,[8]; [11],25.2 min
same,half-life,[8]; [11],78.6 min
C[C@H](Cc1cnn[nH]1)OCC(=O)N1Cc2cnc(NC3Cc4ccccc4C3)nc2C1 [Crystal form A of fumarate],particle size,[1],less than 50 μm
same,After DVS test Whether the crystal form is changed,[2],No
same,Hygroscopicity,[2],Slightly
same,Vapor sorption (25° C./80% RH),[2],0.60%
same,DVS curve vapor sorption,[2],less than 0.60%
same,Risk evaluation,[2],None
same,Purity/initial purity (%),"Solid stability, 1 week; 25° C./60% RH",100.1%
same,Purity (area %),"Solid stability, 1 week; 25° C./60% RH",99.28 area %
same,Crystal form change,"Solid stability, 1 week; 25° C./60% RH",No
same,Purity/initial purity (%),"Solid stability, 1 week; 40° C./75% RH",100.1%
same,Purity (area %),"Solid stability, 1 week; 40° C./75% RH",99.33 area %
same,Crystal form change,"Solid stability, 1 week; 40° C./75% RH",No
same,Crystal form change,"[3]; H2O, 1 h",No
same,Crystal form change,"[3]; H2O, 4 h",No
same,Crystal form change,"[3]; H2O, 24 h",No
same,Crystal form change,"[3]; SGF, 1 h",No
same,Crystal form change,"[3]; SGF, 4 h",No
same,Crystal form change,"[3]; SGF, 24 h",No
same,pH,"[3]; FaSSIF, 1 h",4.9
same,pH,"[3]; FaSSIF, 4 h",4.4
same,pH,"[3]; FaSSIF, 24 h",4.2
same,pH,"[3]; FeSSIF, 1 h",4.8
same,pH,"[3]; FeSSIF, 4 h",4.9
same,pH,"[3]; FeSSIF, 24 h",4.8
same,pH,"[3]; H2O, 1 h",3.6
same,pH,"[3]; H2O, 4 h",3.7
same,pH,"[3]; H2O, 24 h",3.6
same,pH,"[3]; SGF, 1 h",1.9
same,pH,"[3]; SGF, 4 h",1.9
same,pH,"[3]; SGF, 24 h",1.9
C[C@H](Cc1cnn[nH]1)OCC(=O)N1Cc2cnc(NC3Cc4ccccc4C3)nc2C1 [Free base crystal form A],particle size,[1],less than 50 μm
same,After DVS test Whether the crystal form is changed,[2],No
same,Hygroscopicity,[2],Slightly
same,Vapor sorption (25° C./80% RH),[2],1.03%
same,Risk evaluation,[2],None
same,Purity/initial purity (%),"Solid stability, 1 week; 25° C./60% RH",100.0%
same,Purity (area %),"Solid stability, 1 week; 25° C./60% RH",98.67 area %
same,Crystal form change,"Solid stability, 1 week; 25° C./60% RH",No
same,Purity/initial purity (%),"Solid stability, 1 week; 40° C./75% RH",100.0%
same,Purity (area %),"Solid stability, 1 week; 40° C./75% RH",98.60 area %
same,Crystal form change,"Solid stability, 1 week; 40° C./75% RH",No
same,Crystal form change,"[3]; FaSSIF, 1 h",No
same,Crystal form change,"[3]; FaSSIF, 4 h",No
same,Crystal form change,"[3]; FaSSIF, 24 h",No
same,Crystal form change,"[3]; FeSSIF, 1 h",No
same,Crystal form change,"[3]; FeSSIF, 4 h",No
same,Crystal form change,"[3]; FeSSIF, 24 h",No
same,Crystal form change,"[3]; H2O, 1 h",No
same,Crystal form change,"[3]; H2O, 4 h",No
same,Crystal form change,"[3]; H2O, 24 h",No
same,Crystal form change,"[3]; SGF, 1 h",No
same,Crystal form change,"[3]; SGF, 4 h",No
same,Crystal form change,"[3]; SGF, 24 h",No
same,pH,"[3]; FaSSIF, 1 h",6.5
same,pH,"[3]; FaSSIF, 4 h",6.6
same,pH,"[3]; FaSSIF, 24 h",6.6
same,pH,"[3]; FeSSIF, 1 h",5.1
same,pH,"[3]; FeSSIF, 4 h",5.1
same,pH,"[3]; FeSSIF, 24 h",5.1
same,pH,"[3]; H2O, 1 h",8.4
same,pH,"[3]; H2O, 4 h",8.4
same,pH,"[3]; H2O, 24 h",8.6
same,pH,"[3]; SGF, 1 h",1.9
same,pH,"[3]; SGF, 4 h",1.9
same,pH,"[3]; SGF, 24 h",2.0

# From patent US20230312582A1, “Salts Of Nitrogen-Containing Heterocyclic Compound, And Solid Forms Of Salts, Pharmaceutical Composition And Use Thereof” (Wuhan Humanwell Innovative Drug Research And Development …, priority 2020, published 2023)
